In brackets after ≈: the same amount, converted by molar mass.
Experiments:
[1] = system: T. b. rhodesiense STIB 900; test: African sleeping sickness in vitro screening model (Alamar Blue); assay type: cell-based, Trypanosoma brucei rhodesiense; settings: for IC50: Trypanosoma brucei
Procedure: Bloodstream from trypomastigotes of the strains (a) and (c) are maintained in Minimal Essential Medium (MEM) with Earle's salts supplemented according to Baltz, et al., (EMBO J. 4:1273-1277, 1985) with 25 mM N-2-hydroxyethylpiperazine-N′-2-ethane-sulphonic acid (HEPES), 1 g/L additional glucose, 1% MEM non-essential amino acids (100×), 0.2 mM 2-mercaptoethanol, 2 mM sodium pyruvate, 0.1 mM hypoxanthine and 15% heat-inactivated horse serum.
All cultures and assays are conducted at 37° C. under an atmosphere of 5% CO2 in air.
After use the stocks are kept at −20° C. For the assays, the compound is further diluted in serum-free culture medium and finally to the appropriate concentration in complete medium without hypoxanthine.
Assays are performed in 96-well microtiter plates, each well containing 100 μL of culture medium with 8×10^3 bloodstream forms with or without a serial drug dilution. The highest concentration for the test compounds is 90 μg/mL. Seven 3-fold drug dilutions are used, covering a range from 90 μg/mL to 0.123 μg/mL. Each drug is tested in duplicate. Active compounds are tested twice for confirmation. The final result is the mean of the four individual IC50 values. After 72 hrs of incubation, the plates are inspected under an inverted microscope to assure growth of the controls and sterile conditions.
Ten μL of Alamar Blue (12.5 mg resazurin dissolved in 100 mL distilled water) are now added to each well and the plates are incubated for another 2 hours. Then the plates are read with a Spectramax GEMINI XS microplate fluorometer (Molecular Devices Cooperation, Sunnyvale, Calif., USA) using an excitation wavelength of 536 nm and an emission wave length of 588 nm.
IC50 values are determined using the microplate reader software Softmax Pro (Molecular Devices Cooperation, Sunnyvale, Calif., USA).

[2] = system: Trypanosoma cruzi Tulahuen C2C4 strain; test: Chagas disease in vitro screening model (beta-galactosidase strain in L-6 cells); assay type: cell-based
Procedure: Trypanosoma cruzi Tulahuen C2C4 strain, containing the β-galactosidase (Lac Z) gene (Buckner et al., Antimicrob. Agents Chemother 40:2592-2597, 1996) is used for this study.
The infective amastigote and trypomastigote stages are cultivated in L-6 cells (a rat skeletal myoblast cell line) in RPMI 1640 medium supplemented with 2 mM L-glutamine and 10% heat-inactivated fetal bovine serum in 12.5 cm^2 tissue culture flasks. Amastigotes develop intracellularly, differentiate into trypomastigotes, and leave the host cell. These trypomastigotes infect new L-6 cells and are the stages used to initiate an infection in the assay. All cultures and assays are conducted at 37° C. under an atmosphere of 5% CO2 in air.
(§1) After use the stocks are kept at −20° C. For the assays, the compound is further diluted to the appropriate concentration using complete medium.
Assays are performed in sterile 96-well microtiter plates, each well containing 100 μl medium with 2×10^3 L-6 cells. After 24 hours, […] of a trypanosome suspension containing 5×10^3 trypomastigote bloodstream forms from culture are added to the wells. Forty-eight hours later, the medium is removed from the wells and replaced by […] fresh medium, with or without a serial drug dilution. At this point the L-6 cells should be infected with amastigotes and no free trypomastigotes should be in the medium. Seven 3-fold drug dilutions are used, covering a range from 90 μg/mL to 0.123 μg/mL. Each drug is tested in duplicate. Active compounds are tested twice for confirmation. After 96 hours of incubation the plates are inspected under an inverted microscope to assure growth of the controls and sterility.
Then the substrate CPRG/Nonidet (50 μl) is added to all wells. A colour reaction will become visible within 2-6 hours and can be read photometrically at 540 nm. Data are transferred into a graphics program (e.g., EXCEL), sigmoidal inhibition curves determined and IC50 values calculated.

[3] = system: Leishmania donovani strain MHOM/ET1671L82; test: Leishmaniasis in vitro screening model (axenic amastigotes, Alamar Blue); assay type: cell-based
Procedure: The Leishmania donovani strain MHOM/ET1671L82 (obtained from Dr. S. Croft, London School of Hygiene and Tropical Medicine) is used. The strain is maintained in the Syrian Golden hamster. Amastigotes are collected from the spleen of an infected hamster. Amastigotes are grown in axenic culture at 37° C. in SM medium (Cunningham I., J. Protozoal. 24:325-329, 1977) at pH 5.4 supplemented with 10% heat-inactivated fetal bovine serum (FBS) under an atmosphere of 5% CO2 in air.
as §1
Assays are performed in 96-well flat-bottom microtiter plates (Costar, Corning Inc.), each well containing 100 μl of culture medium with 105 amastigotes from axenic culture with or without a serial drug dilution. Concentration of amastigotes is determined in a CASY cell analyzing system (Scharfe System, Reutlingen, Germany). Before the amastigotes are counted, the parasite culture is passed twice through a 22-gauge needle to break up clusters of amastigotes.
The highest concentration for the test compounds is 90 μg/mL. Seven 3-fold dilutions are used, covering a range from […]. Each drug is tested in duplicate. Active compounds are tested twice for confirmation. After 72 hours of incubation, the plates are inspected under an inverted microscope to assure growth of the controls and sterile conditions.
Ten μL of Alamar Blue (12.5 mg resazurin dissolved in 100 mL distilled water) are then added to each well and the plates are incubated for another 2 hours. Then the plates are read with a Spectramax GEMINI XS microplate fluorometer (Molecular Devices Cooperation, Sunnyvale, Calif., USA) using an excitation wave length of 536 nm and an emission wave length of 588 nm.
Data are analyzed using the microplate reader software Softmax Pro (Molecular Devices Cooperation, Sunnyvale, Calif., USA). Decrease of fluorescence (i.e. inhibition) is expressed as percentage of the fluorescence of control cultures and plotted against the drug concentrations. The IC50 value is calculated from the sigmoidal inhibition curve by the software program.

Structure (SMILES)	IC50 [1] [µg/mL]	IC50 ([2]; Trypanosoma cruzi, TULAHUEN, L6, read-out: T. cruzi IC50) [µg/mL]	IC50 ([3]; Leishmania donovani, read-out: L. donovani IC50) [µg/mL]	T. b. rhodesiense IC50 [1] [µg/mL]	T. cruzi IC50 [2] [µg/mL]	L. donovani IC50 [3] [µg/mL]
CC1(C)COC(c2cccc(B(Oc3cccc4cccnc34)c3cccc(Cl)c3)c2)=N1 [Compound 18, (3-Chlorophenyl)[3-(4,5-dihydro-4,4-dimethyloxazol-2yl)phenyl]borinic acid quinolin-8-yl ester]	1.7 (≈ 3.86 µM)					
Fc1cccc(B(Oc2cccc3cccnc23)c2ccc(Cl)c(Cl)c2)c1 [Compound 46, (3,4-Dichlorophenyl)(3-fluorophenyl)borinic acid quinolin-8-yl ester]	0.51 (≈ 1.29 µM)	0.84 (≈ 2.12 µM)	0.44 (≈ 1.11 µM)			
Cc1cccc(B(Oc2cccc3cccnc23)c2cccc(C)c2)c1 [Compound 86]				0.35	3	0.59
N#Cc1ccc(B(Oc2cccc3cccnc23)c2ccc(C#N)cc2)cc1 [Compound 88]				0.41	1.385	0.76
Clc1ccc(B(Oc2c(I)cc(Cl)c3cccnc23)c2ccc(Cl)cc2)cc1 [Compound 90]				1.4	3.25	0.15
Cc1cc(C)c2cccnc2c1OB(c1ccc(F)cc1)c1ccc(Cl)cc1 [Compound 91]				0.36	4.3	0.94
Fc1ccc(B(Oc2c(Cl)cc(Cl)c3cccnc23)c2ccc(Cl)cc2)cc1 [Compound 92]				1.1	2.55	0.052
C=CB(Oc1cccc2cccnc12)c1cccnc1 [Compound 94]				0.495	2.8	0.55
N#Cc1cccc(B(Oc2cccc3cccnc23)c2ccc(F)c(F)c2)c1 [Compound 95]				0.435	2.95	0.61
Clc1cccc(B(Oc2cccc3cccnc23)c2cccnc2)c1 [Compound 99]				0.345	4.45	0.49
C=CB(Oc1cccc2cccnc12)c1ccc(OC)nc1 [Compound 100]				0.305	3.8	0.33
C=CB(Oc1cccc2cccnc12)c1ccc(F)nc1 [Compound 101]				0.3	3.95	0.34
N#Cc1cccc(B(Oc2cccc3cccnc23)c2cccnc2)c1 [Compound 102]				0.49	4.2	0.37
Cc1ccc(B(Oc2cccc3cccnc23)c2ccco2)cc1Cl [Compound 103]				0.38	4.4	0.35
CN(C)CCOc1ccc(B(Oc2cccc3cccnc23)c2ccc(Cl)cc2)cc1 [Compound 104]				1.24	4.3	0.71
CN(C)Cc1ccc(B(Oc2cccc3cccnc23)c2ccc(Cl)cc2)cc1.Cl [Compound 105]				0.41	4.2	0.72
CN(C)Cc1ccc(B(Oc2cccc3cccnc23)c2ccc(Cl)cc2)cc1.O=C(O)/C=C/C(=O)O [Compound 106]				0.385	4.25	0.69
CSc1cccc(B(Oc2cccc3cccnc23)c2cccc(Cl)c2)c1 [Compound 107]				0.365	4.1	0.42
Cc1cc(Cl)ccc1B(Oc1cccc2cccnc12)c1ccc(Cl)cc1C [Compound 109]				0.405	4.35	0.75
CN(C)Cc1ccc(B(Oc2cccc3cccnc23)c2ccc(F)c(F)c2)cc1 [Compound 110]				0.38	4.7	0.61
CC1CCN(S(=O)(=O)c2ccc(B(Oc3cccc4cccnc34)c3ccc(Cl)cc3)cc2)CC1 [Compound 111]				0.552	4.15	0.74
CN(C)Cc1ccc(B(Oc2cccc3cccnc23)c2cccc(C#N)c2)cc1.O=C(O)/C=C/C(=O)O [Compound 112]				0.44	4.2	0.98
N#Cc1cccc(B(Oc2cccc3cccnc23)c2cc(F)ccc2F)c1 [Compound 113]				0.39	4.25	0.57
Fc1ccc(B(Oc2cccc3cccnc23)c2ccc(Cl)cc2)cc1F [Compound 114]				0.41	4	0.71
C=CB(Oc1cccc2cccnc12)c1ccco1 [Compound 117]				0.295	3.65	0.63

Reference: patent US20060014723A1, “Anti-parasitic uses of borinic acid complexes” (priority 2004, published 2006)
